From article PMC5218480 (PLoS ONE, 2017)

Tested on: MV-4-11 cells
Test: Gene expression microarray analysis (Affymetrix PrimeView) and GSEA
Assay type: cell-based, human
Set-up: RFU PODN (11730768_x_at) / Fold change /veh PODN (11730768_x_at) / RFU LINC00158 (11744669_a_at) / Fold change /veh LINC00158 (11744669_a_at) / RFU DUSP10 (11751237_a_at) / Fold change /veh DUSP10 (11751237_a_at) / RFU ID3 (11757404_x_at) / Fold change /veh ID3 (11757404_x_at) / RFU PLEKHG5 (11737974_s_at) / Fold change /veh PLEKHG5 (11737974_s_at) / RFU LRRC4B (11730491_at) / Fold change /veh LRRC4B (11730491_at) / RFU GIMAP4 (11747438_a_at) / Fold change /veh GIMAP4 (11747438_a_at) / RFU KRT8 (11758183_x_at) / Fold change /veh KRT8 (11758183_x_at) / RFU CNN1 (11734310_a_at) / Fold change /veh CNN1 (11734310_a_at) / RFU VPS37D (11726825_at) / Fold change /veh VPS37D (11726825_at) / RFU C10orf10 (11716522_x_at) / Fold change /veh C10orf10 (11716522_x_at) / RFU KIR2DL2 /// KIR2DL4 /// KIR2DL5A /// KIR2DL5B /// KIR2DS1 /// KIR2DS2 /// KIR2DS3 /// KIR2DS4 /// KIR3DL3 /// KIR3DL3 /// KIR3DS1 (11738374_at) / Fold change /veh KIR2DL2 /// KIR2DL4 /// KIR2DL5A /// KIR2DL5B /// KIR2DS1 /// KIR2DS2 /// KIR2DS3 /// KIR2DS4 /// KIR3DL3 /// KIR3DL3 /// KIR3DS1 (11738374_at) / RFU C1QL1 (11718748_at) / Fold change /veh C1QL1 (11718748_at) / RFU TMPRSS4 (11747572_a_at) / Fold change /veh TMPRSS4 (11747572_a_at) / RFU HAMP (11756126_x_at) / Fold change /veh HAMP (11756126_x_at) / RFU RNFT2 (11725882_a_at) / Fold change /veh RNFT2 (11725882_a_at) / RFU NR4A2 (11747474_a_at) / Fold change /veh NR4A2 (11747474_a_at) / RFU ABCC12 (11746883_a_at) / Fold change /veh ABCC12 (11746883_a_at) / RFU TMEM136 (11760407_x_at) / Fold change /veh TMEM136 (11760407_x_at) / RFU CLDN22 /// WWC2 (11732394_at) / Fold change /veh CLDN22 /// WWC2 (11732394_at) / RFU HLA-DPB1 (11760878_x_at) / Fold change /veh HLA-DPB1 (11760878_x_at) / RFU SPINT1 (11716480_a_at) / Fold change /veh SPINT1 (11716480_a_at) / RFU GAP43 (11754022_s_at) / Fold change /veh GAP43 (11754022_s_at) / RFU A4GNT (11735810_at) / Fold change /veh A4GNT (11735810_at) / RFU PRB3 (11715151_x_at) / Fold change /veh PRB3 (11715151_x_at) / RFU TUBB4B (11761932_at) / Fold change /veh TUBB4B (11761932_at) / RFU CAPN14 (11732068_a_at) / Fold change /veh CAPN14 (11732068_a_at) / RFU TMCC2 (11721928_a_at) / Fold change /veh TMCC2 (11721928_a_at) / RFU IRGQ (11745062_a_at) / Fold change /veh IRGQ (11745062_a_at) / RFU FAM174B (11720279_a_at) / Fold change /veh FAM174B (11720279_a_at) / RFU TMPRSS4 (11748680_a_at) / Fold change /veh TMPRSS4 (11748680_a_at) / RFU FAM212B (11763350_a_at) / Fold change /veh FAM212B (11763350_a_at) / RFU PLEKHG5 (11743358_a_at) / Fold change /veh PLEKHG5 (11743358_a_at) / RFU ZSCAN30 (11745921_a_at) / Fold change /veh ZSCAN30 (11745921_a_at) / RFU CMKLR1 (11741424_a_at) / Fold change /veh CMKLR1 (11741424_a_at) / RFU LOC101060620 /// MAPK8IP1 (11723275_at) / Fold change /veh LOC101060620 /// MAPK8IP1 (11723275_at) / RFU SPTSSB (11747773_x_at) / Fold change /veh SPTSSB (11747773_x_at) / RFU PRSS12 (11739890_at) / Fold change /veh PRSS12 (11739890_at) / RFU BIN1 (11741810_x_at) / Fold change /veh BIN1 (11741810_x_at) / RFU WNT11 (11732464_a_at) / Fold change /veh WNT11 (11732464_a_at) / RFU C10orf10 (11716521_a_at) / Fold change /veh C10orf10 (11716521_a_at) / RFU C5orf56 (11738089_at) / Fold change /veh C5orf56 (11738089_at) / RFU CYB561 (11721691_x_at) / Fold change /veh CYB561 (11721691_x_at) / RFU ANKRD19P (11752326_a_at) / Fold change /veh ANKRD19P (11752326_a_at) / RFU OR2T12 /// OR2T33 /// OR2T8 (11738714_s_at) / Fold change /veh OR2T12 /// OR2T33 /// OR2T8 (11738714_s_at) / RFU VCAN (11748164_a_at) / Fold change /veh VCAN (11748164_a_at) / RFU JSRP1 (11732532_at) / Fold change /veh JSRP1 (11732532_at) / RFU KRTAP10-11 (11738290_x_at) / Fold change /veh KRTAP10-11 (11738290_x_at) / RFU MYO3A (11730013_a_at) / Fold change /veh MYO3A (11730013_a_at) / RFU EBF3 (11725865_a_at) / Fold change /veh EBF3 (11725865_a_at) / RFU CAMK2N1 (11719241_x_at) / Fold change /veh CAMK2N1 (11719241_x_at) / RFU C5orf56 (11738088_a_at) / Fold change /veh C5orf56 (11738088_a_at) / RFU OLFML3 (11715873_a_at) / Fold change /veh OLFML3 (11715873_a_at) / RFU LOC100653217 /// NTM (11731650_a_at) / Fold change /veh LOC100653217 /// NTM (11731650_a_at) / RFU MAPK11 (11762145_a_at) / Fold change /veh MAPK11 (11762145_a_at) / RFU FIZ1 (11724087_x_at) / Fold change /veh FIZ1 (11724087_x_at) / RFU OASL (11726364_x_at) / Fold change /veh OASL (11726364_x_at) / RFU SOX15 (11748057_x_at) / Fold change /veh SOX15 (11748057_x_at) / RFU CD79A (11719716_a_at) / Fold change /veh CD79A (11719716_a_at) / RFU HIST1H1D (11736915_at) / Fold change /veh HIST1H1D (11736915_at) / RFU CASKIN2 (11723855_a_at) / Fold change /veh CASKIN2 (11723855_a_at) / RFU LOC730098 (11760151_x_at) / Fold change /veh LOC730098 (11760151_x_at) / RFU OR4N2 (11742367_at) / Fold change /veh OR4N2 (11742367_at) / RFU PRRT2 (11749266_a_at) / Fold change /veh PRRT2 (11749266_a_at) / RFU SNX32 (11753110_a_at) / Fold change /veh SNX32 (11753110_a_at) / RFU CDHR5 (11726645_a_at) / Fold change /veh CDHR5 (11726645_a_at) / RFU RCAN1 (11760418_a_at) / Fold change /veh RCAN1 (11760418_a_at) / RFU FAM167A (11723789_a_at) / Fold change /veh FAM167A (11723789_a_at) / RFU FAM26E (11764081_at) / Fold change /veh FAM26E (11764081_at) / RFU ISYNA1 (11749810_s_at) / Fold change /veh ISYNA1 (11749810_s_at) / RFU ACY1 (11761880_at) / Fold change /veh ACY1 (11761880_at) / RFU 11764098_at / Fold change /veh 11764098_at / RFU SAMD14 (11745864_x_at) / Fold change /veh SAMD14 (11745864_x_at) / RFU NPB (11741838_a_at) / Fold change /veh NPB (11741838_a_at) / RFU TMPRSS6 (11731388_a_at) / Fold change /veh TMPRSS6 (11731388_a_at) / RFU KRTAP10-2 (11738614_at) / Fold change /veh KRTAP10-2 (11738614_at) / RFU ARHGAP8 /// PRR5-ARHGAP8 (11727945_x_at) / Fold change /veh ARHGAP8 /// PRR5-ARHGAP8 (11727945_x_at) / RFU KRTAP5-7 /// NADSYN1 (11734609_at) / Fold change /veh KRTAP5-7 /// NADSYN1 (11734609_at) / RFU RASL12 (11751679_a_at) / Fold change /veh RASL12 (11751679_a_at) / RFU CDKN2B (11736163_a_at) / Fold change /veh CDKN2B (11736163_a_at) / RFU PRF1 (11729649_at) / Fold change /veh PRF1 (11729649_at) / RFU, ZNF638 /// ZNF638-IT1 / Fold change vs veh, ZNF638 /// ZNF638-IT1 / RFU, PANK3 / Fold change vs veh, PANK3 / RFU, SH3YL1 / Fold change vs veh, SH3YL1 / RFU, ZEB2 / Fold change vs veh, ZEB2 / RFU, NRIP1 / Fold change vs veh, NRIP1 / RFU, PTTG1IP / Fold change vs veh, PTTG1IP / RFU, CAPN2 / Fold change vs veh, CAPN2 / RFU, MED14 / Fold change vs veh, MED14 / RFU, SNORA58 / Fold change vs veh, SNORA58 / RFU, C1orf63 / Fold change vs veh, C1orf63 / RFU, LRRFIP1 / Fold change vs veh, LRRFIP1 / RFU, NDUFAF7 / Fold change vs veh, NDUFAF7 / RFU, SLC12A2 / Fold change vs veh, SLC12A2 / RFU, IBTK / Fold change vs veh, IBTK / RFU, ESF1 / Fold change vs veh, ESF1 / Fold change vs veh, TMEM50B / RFU, TAOK1 / Fold change vs veh, TAOK1 / RFU, ACBD3 / Fold change vs veh, ACBD3 / RFU, TMA16 / Fold change vs veh, TMA16 / RFU, RWDD3 / Fold change vs veh, RWDD3 / RFU, BCAT1 / Fold change vs veh, BCAT1 / RFU, EDEM3 / Fold change vs veh, EDEM3 / RFU, TMEM33 / Fold change vs veh, TMEM33 / RFU, WDR75 / Fold change vs veh, WDR75 / RFU, AHCTF1 / Fold change vs veh, AHCTF1 / RFU, TFRC / Fold change vs veh, TFRC / RFU, ZDHHC17 / Fold change vs veh, ZDHHC17 / RFU, NOM1 / Fold change vs veh, NOM1 / RFU, ARL8B / Fold change vs veh, ARL8B / RFU, ZBTB11 / Fold change vs veh, ZBTB11 / RFU, TAMM41 / Fold change vs veh, TAMM41 / RFU, KIAA1704 /// LOC100996395 / Fold change vs veh, KIAA1704 /// LOC100996395 / RFU, ING1 / Fold change vs veh, ING1 / RFU, TRMT61B / Fold change vs veh, TRMT61B / RFU, FUBP3 / Fold change vs veh, FUBP3 / RFU, TP53 / Fold change vs veh, TP53 / RFU, TNKS2 / Fold change vs veh, TNKS2 / RFU, ZFP14 / Fold change vs veh, ZFP14 / RFU, ACTR2 / Fold change vs veh, ACTR2 / RFU, PPP3R1 / Fold change vs veh, PPP3R1 / RFU, PIK3R1 / Fold change vs veh, PIK3R1 / RFU, HNRNPA1 / Fold change vs veh, HNRNPA1 / RFU, RNF170 / Fold change vs veh, RNF170 / RFU, ZNF28 / Fold change vs veh, ZNF28 / RFU, RNGTT / Fold change vs veh, RNGTT / RFU, OGT / Fold change vs veh, OGT / RFU, BRD1 / Fold change vs veh, BRD1 / RFU, MARS / Fold change vs veh, MARS / RFU, ZNF655 / Fold change vs veh, ZNF655 / RFU, FAHD1 / Fold change vs veh, FAHD1 / RFU, BDP1 / Fold change vs veh, BDP1 / RFU, LRRCC1 / Fold change vs veh, LRRCC1 / RFU, ARID1A / Fold change vs veh, ARID1A / RFU, ZNF146 / Fold change vs veh, ZNF146 / RFU, ZNF330 / Fold change vs veh, ZNF330 / RFU, GPN3 / Fold change vs veh, GPN3 / RFU, C9orf123 / Fold change vs veh, C9orf123 / RFU, N4BP2L2 / Fold change vs veh, N4BP2L2 / RFU, ARFIP1 / Fold change vs veh, ARFIP1 / RFU, FAM179B / Fold change vs veh, FAM179B / RFU, BCL10 / Fold change vs veh, BCL10 / RFU, UHRF1BP1L / Fold change vs veh, UHRF1BP1L / RFU, BET1 / Fold change vs veh, BET1 / RFU, CNOT2 / Fold change vs veh, CNOT2 / RFU, ZNF268 / Fold change vs veh, ZNF268 / Fold change vs veh, ZNF507 / RFU, DGCR2 / Fold change vs veh, DGCR2 / RFU, WDSUB1 / Fold change vs veh, WDSUB1 / Fold change vs veh, HSP90B1 /// MIR3652 / RFU, ADSS / Fold change vs veh, ADSS / RFU, GK / Fold change vs veh, GK / RFU, ZNF148 / Fold change vs veh, ZNF148 / RFU, TAF9 / Fold change vs veh, TAF9 / RFU, SLC1A5 / Fold change vs veh, SLC1A5 / RFU, SLMO2 / Fold change vs veh, SLMO2 / RFU, ABCC4 / Fold change vs veh, ABCC4 / RFU, LOC101060439 /// RAP1B / Fold change vs veh, LOC101060439 /// RAP1B / RFU, RFX7 / Fold change vs veh, RFX7 / RFU, GTPBP10 / Fold change vs veh, GTPBP10 / RFU, CNEP1R1 / Fold change vs veh, CNEP1R1 / RFU, BIVM-ERCC5 /// ERCC5 / Fold change vs veh, BIVM-ERCC5 /// ERCC5 / RFU, ILF3 / Fold change vs veh, ILF3 / RFU 11762660_at / Fold change /veh 11762660_at / RFU VCAN (11757783_s_at) / Fold change /veh VCAN (11757783_s_at) / RFU DDX43 (11728927_at) / Fold change /veh DDX43 (11728927_at) / RFU KRT8 (11758188_x_at) / Fold change /veh KRT8 (11758188_x_at) / RFU NKD1 (11759106_at) / Fold change /veh NKD1 (11759106_at) / RFU SRD5A1 (11742802_a_at) / Fold change /veh SRD5A1 (11742802_a_at) / RFU TPSAB1 /// TPSB2 (11721975_s_at) / Fold change /veh TPSAB1 /// TPSB2 (11721975_s_at) / RFU GSTM3 (11746129_a_at) / Fold change /veh GSTM3 (11746129_a_at) / RFU IL23R (11737362_x_at) / Fold change /veh IL23R (11737362_x_at) / RFU TMEM51 (11727254_a_at) / Fold change /veh TMEM51 (11727254_a_at) / RFU PIWIL2 (11732686_x_at) / Fold change /veh PIWIL2 (11732686_x_at) / RFU ORM1 (11744905_x_at) / Fold change /veh ORM1 (11744905_x_at) / RFU CCDC152 (11743942_at) / Fold change /veh CCDC152 (11743942_at) / RFU ECM1 (11717891_a_at) / Fold change /veh ECM1 (11717891_a_at) / RFU IL23R (11748794_a_at) / Fold change /veh IL23R (11748794_a_at) / RFU TNFAIP8L3 (11732012_x_at) / Fold change /veh TNFAIP8L3 (11732012_x_at) / RFU MBOAT4 (11741988_at) / Fold change /veh MBOAT4 (11741988_at) / RFU 11764193_at / Fold change /veh 11764193_at / RFU TMEM53 (11763286_at) / Fold change /veh TMEM53 (11763286_at) / RFU MAGEB2 (11727129_at) / Fold change /veh MAGEB2 (11727129_at) / RFU TMEM200A (11744735_a_at) / Fold change /veh TMEM200A (11744735_a_at) / RFU CCDC152 (11751479_a_at) / Fold change /veh CCDC152 (11751479_a_at) / RFU FAM211A (11726209_a_at) / Fold change /veh FAM211A (11726209_a_at) / RFU RGS16 (11746705_a_at) / Fold change /veh RGS16 (11746705_a_at) / RFU VCAN (11755009_s_at) / Fold change /veh VCAN (11755009_s_at) / RFU RHOB (11743442_s_at) / Fold change /veh RHOB (11743442_s_at) / RFU RGS16 (11720943_a_at) / Fold change /veh RGS16 (11720943_a_at) / RFU RGS16 (11720944_at) / Fold change /veh RGS16 (11720944_at) / RFU, VPS4B / Fold change vs veh, VPS4B / RFU, CREB1 / Fold change vs veh, CREB1 / RFU, DNAJC13 / Fold change vs veh, DNAJC13 / RFU, GNAQ / Fold change vs veh, GNAQ / RFU, CDK5R1 / Fold change vs veh, CDK5R1 / RFU, ZRANB3 / Fold change vs veh, ZRANB3 / RFU, CUL4A / Fold change vs veh, CUL4A / RFU, CCNY / Fold change vs veh, CCNY / RFU, UFL1 / Fold change vs veh, UFL1 / RFU, COG3 / Fold change vs veh, COG3 / RFU, DIAPH2 / Fold change vs veh, DIAPH2 / RFU, SKA2 / Fold change vs veh, SKA2 / RFU, AFF3 / Fold change vs veh, AFF3 / RFU, LMF1 / Fold change vs veh, LMF1 / RFU, IPO11 / Fold change vs veh, IPO11 / RFU, DFFB / Fold change vs veh, DFFB / RFU, FOXP1 / Fold change vs veh, FOXP1 / RFU, CARD8 / Fold change vs veh, CARD8 / RFU, STRN3 / Fold change vs veh, STRN3 / RFU, ADK / Fold change vs veh, ADK / RFU, RASSF2 / Fold change vs veh, RASSF2 / RFU, WIPF1 / Fold change vs veh, WIPF1 / RFU, LARP1B / Fold change vs veh, LARP1B / RFU, RASA1 / Fold change vs veh, RASA1 / RFU, RB1 / Fold change vs veh, RB1 / RFU, PPFIA1 / Fold change vs veh, PPFIA1 / RFU, MAT2A / Fold change vs veh, MAT2A / RFU, CCT5 / Fold change vs veh, CCT5 / RFU, WDR92 / Fold change vs veh, WDR92 / RFU, CUX1 / Fold change vs veh, CUX1 / RFU, TTC7A / Fold change vs veh, TTC7A / RFU, TMEM135 / Fold change vs veh, TMEM135 / RFU, DEPTOR / Fold change vs veh, DEPTOR / RFU, CPM / Fold change vs veh, CPM / RFU, DNAJB6 / Fold change vs veh, DNAJB6 / RFU, CACNA2D3 / Fold change vs veh, CACNA2D3 / RFU, DTX4 / Fold change vs veh, DTX4 / RFU, TFCP2 / Fold change vs veh, TFCP2 / RFU, GMCL1 /// GMCL1P1 / Fold change vs veh, GMCL1 /// GMCL1P1 / RFU, AEBP2 / Fold change vs veh, AEBP2 / RFU, SNHG1 /// SNORD22 /// SNORD25 /// SNORD26 /// SNORD27 /// SNORD28 /// SNORD29 /// SNORD31 / Fold change vs veh, SNHG1 /// SNORD22 /// SNORD25 /// SNORD26 /// SNORD27 /// SNORD28 /// SNORD29 /// SNORD31 / Fold change (Aza/veh), C12orf56 (ProbeSet 11735607_a_at) / Fold change (ACY-1035/veh), C12orf56 (ProbeSet 11735607_a_at) / Fold change (Aza/veh), FGFR1OP (ProbeSet 11751329_s_at) / Fold change (ACY-1035/veh), FGFR1OP (ProbeSet 11751329_s_at) / Fold change (Aza/veh), VPS36 (ProbeSet 11739960_a_at) / Fold change (ACY-1035/veh), VPS36 (ProbeSet 11739960_a_at) / RFU SYPL1 (11715823_x_at) / Fold change /veh SYPL1 (11715823_x_at) / RFU IGFBP7 (11715501_s_at) / Fold change /veh IGFBP7 (11715501_s_at) / RFU REEP3 (11722064_at) / Fold change /veh REEP3 (11722064_at) / RFU IGLL1 (11728026_x_at) / Fold change /veh IGLL1 (11728026_x_at): dose or concentration left out as unconfirmed
Details: ProbeSet 11718569_a_at; LIST D

Compound: Nc1ccc(-c2cccs2)cc1NC(=O)c1ccc2c(c1)cc(C1CC1)n2CCN1CCOCC1 [ACY-1035]
- RFU, WIPF1: 108.27 RFU
